Data published in the supplement of paper PMC10307832.

What was measured:
Assay in all cases: relative viability (nuclei count vs DMSO), 5 days (fraction); higher = more cells survive
Bosutinib + Bortezomib = compound: COc1cc(Nc2c(C#N)cnc3cc(OCCCN4CCN(C)CC4)c(OC)cc23)c(Cl)cc1Cl [Bosutinib] + CC(C)C[C@H](NC(=O)[C@H](Cc1ccccc1)NC(=O)c1cnccn1)B(O)O [Bortezomib] (partner 0.002 µM)
How it was run: (§1)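 Lung cancer cell lines were pin-tool dosed in 1536-well plates on the day after seeding, with either a lone drug or a fixed anchor-drug dose plus five library-drug doses (not always all listed) in √10 steps. Nuclei were counted on 4× images after 5 days. Relative viability is the ratio of treated-well to vehicle-well nuclei counts, with each value a median of duplicate plates.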

Bosutinib + Linsitinib = compound: COc1cc(Nc2c(C#N)cnc3cc(OCCCN4CCN(C)CC4)c(OC)cc23)c(Cl)cc1Cl [Bosutinib] + C[C@]1(O)C[C@@H](c2nc(-c3ccc4ccc(-c5ccccc5)nc4c3)c3c(N)nccn32)C1 [Linsitinib] (partner 1 µM)
How it was run: as §1

Bosutinib + Phenformin = compound: COc1cc(Nc2c(C#N)cnc3cc(OCCCN4CCN(C)CC4)c(OC)cc23)c(Cl)cc1Cl [Bosutinib] + N=C(N)NC(=N)NCCc1ccccc1 [Phenformin] (partner 250 µM)
How it was run: as §1

Bosutinib + AZD7762 = compound: COc1cc(Nc2c(C#N)cnc3cc(OCCCN4CCN(C)CC4)c(OC)cc23)c(Cl)cc1Cl [Bosutinib] + NC(=O)Nc1cc(-c2cccc(F)c2)sc1C(=O)N[C@H]1CCCNC1 [AZD7762] (partner 0.2 µM)
How it was run: as §1

Bosutinib + Decitabine = compound: COc1cc(Nc2c(C#N)cnc3cc(OCCCN4CCN(C)CC4)c(OC)cc23)c(Cl)cc1Cl [Bosutinib] + Nc1ncn([C@H]2C[C@H](O)[C@@H](CO)O2)c(=O)n1 [Decitabine] (partner 2 µM)
How it was run: as §1

Cell Line	relative viability (Bosutinib + Bortezomib; first compound 0.01 µM)	relative viability (Bosutinib + Bortezomib; first compound 0.03162 µM)	relative viability (Bosutinib + Bortezomib; first compound 0.1 µM)	relative viability (Bosutinib + Bortezomib; first compound 1 µM)	relative viability (Bosutinib + Linsitinib; first compound 0.01 µM)	relative viability (Bosutinib + Linsitinib; first compound 0.03162 µM)	relative viability (Bosutinib + Linsitinib; first compound 0.1 µM)	relative viability (Bosutinib + Linsitinib; first compound 1 µM)	relative viability (Bosutinib + Phenformin; first compound 0.01 µM)	relative viability (Bosutinib + Phenformin; first compound 0.03162 µM)	relative viability (Bosutinib + Phenformin; first compound 0.1 µM)	relative viability (Bosutinib + Phenformin; first compound 1 µM)	relative viability (Bosutinib + AZD7762; first compound 0.01 µM)	relative viability (Bosutinib + AZD7762; first compound 0.03162 µM)	relative viability (Bosutinib + AZD7762; first compound 0.1 µM)	relative viability (Bosutinib + AZD7762; first compound 1 µM)	relative viability (Bosutinib + Decitabine; first compound 0.01 µM)	relative viability (Bosutinib + Decitabine; first compound 0.03162 µM)	relative viability (Bosutinib + Decitabine; first compound 0.1 µM)	relative viability (Bosutinib + Decitabine; first compound 1 µM)
201T	1.16	1.05	1.14	1.05	1.08	0.987	1.02	0.966	0.444	0.421	0.449	0.425	0.581	0.654	0.603	0.62	0.892	0.874	0.848	0.821
A549					0.676	0.624	0.55	0.499	0.197	0.169	0.149	0.124					0.279	0.226	0.237	0.261
A-427	0.958	1.04	1.08	0.958	1.1	1.13	1.21	1.02	0.46	0.369	0.331	0.26	0.777	0.691	0.661	0.643	0.596	0.56	0.617	0.612
ABC-1	0.331	0.338	0.312	0.33	0.858	0.931	0.647	0.359	0.186	0.196	0.224	0.26		0.873	0.915	0.677	1.21	1.22	0.997	0.807
BEN	0.726	0.986	0.923	0.765	0.981	0.798	1.01	0.604	0.254	0.257	0.253	0.25	0.608	0.697	0.675	0.658	0.668	0.752	0.819	0.668
CAL-12T	0.888	1.15	1.18	1.01	0.739	0.932	0.891	0.71	0.567	0.584	0.52	0.382	0.576	0.529	0.596	0.515				
COR-L23	1.07	1.03	1.01	1.01	1	0.96	0.895	0.887	0.432	0.451	0.449	0.496					0.432	0.421	0.414	0.454
COR-L 105	0.778	0.9	0.705	0.446	0.948	1.21	0.857	0.59	0.55	0.522	0.519	0.357					0.642	0.608	0.72	0.47
ChaGo-K-1	0.922	1.12	1.12	1.37					0.536	0.503	0.497	0.515	0.919	0.89	0.923	0.852	0.496	0.536	0.511	0.518
EKVX	1.18	1.05	0.982	0.713	0.974	0.982	1	0.539	0.213	0.248	0.236	0.223	0.441	0.751	0.735	0.656	0.382	0.38	0.311	0.336
EMC-BAC-2	1.03	0.943	1.07	1.06	0.852	0.791	0.832	0.733	0.464	0.545	0.488	0.376	1.18	1.11	1.13	1.09	0.963	0.967	0.992	0.988
EPLC-272H	0.76	0.817	0.911	0.9	1.18	1.25	1.31	1.14	0.275	0.353	0.331	0.335	0.225	0.244	0.18	0.232	0.358	0.383	0.418	0.321
H3255	0.659	0.774	0.85	0.493	0.94	0.974	0.994	0.45	0.361	0.359	0.356	0.309	0.846	1.02	0.949	0.517		0.725	0.804	0.354
HARA	1.15	1.13	1.1	1.18	1.01	0.913	0.892	0.629	0.522	0.431	0.376	0.45	0.304	0.308	0.297	0.644	0.581	0.547	0.618	0.489
HCC-15	1.05	1.06	1.08	0.915	0.905	0.837	0.954	0.803	0.478	0.466	0.471	0.389	1.23	1.12	1.23	1.23	0.653	0.659	0.659	0.609
HCC-44	0.873	0.891	0.867	0.567	0.696	0.619	0.674	0.559	0.247	0.278	0.185	0.388	1.02	1.01	1.01	1.04	0.97	0.995	0.971	0.987
HCC-78	0.551	0.486	0.428	0.429	0.575	0.492	0.52	0.407	0.665	0.703	0.802	0.7	0.655	0.788	0.781	0.584	0.768	0.698	0.761	0.676
HCC-366	1.11	1.01	1.06	0.989	0.708	0.604	0.457	0.0753	0.63	0.61	0.555	0.53	0.34	0.253	0.205	0.073	0.348	0.365	0.312	0.265
HCC-827	1.03	1	1.03	0.928	0.987	0.967	0.914	0.843	0.427	0.407	0.366	0.19	0.219	0.21	0.189	0.168	0.306	0.37	0.404	0.186

Cell Line	relative viability (Bosutinib + Bortezomib; first compound 0.01 µM)	relative viability (Bosutinib + Bortezomib; first compound 0.03162 µM)	relative viability (Bosutinib + Bortezomib; first compound 0.1 µM)	relative viability (Bosutinib + Bortezomib; first compound 1 µM)	relative viability (Bosutinib + Linsitinib; first compound 0.01 µM)	relative viability (Bosutinib + Linsitinib; first compound 0.03162 µM)	relative viability (Bosutinib + Linsitinib; first compound 0.1 µM)	relative viability (Bosutinib + Linsitinib; first compound 1 µM)	relative viability (Bosutinib + Phenformin; first compound 0.01 µM)	relative viability (Bosutinib + Phenformin; first compound 0.03162 µM)	relative viability (Bosutinib + Phenformin; first compound 0.1 µM)	relative viability (Bosutinib + Phenformin; first compound 1 µM)	relative viability (Bosutinib + AZD7762; first compound 0.01 µM)	relative viability (Bosutinib + AZD7762; first compound 0.03162 µM)	relative viability (Bosutinib + AZD7762; first compound 0.1 µM)	relative viability (Bosutinib + AZD7762; first compound 1 µM)	relative viability (Bosutinib + Decitabine; first compound 0.01 µM)	relative viability (Bosutinib + Decitabine; first compound 0.03162 µM)	relative viability (Bosutinib + Decitabine; first compound 0.1 µM)	relative viability (Bosutinib + Decitabine; first compound 1 µM)
IA-LM	0.797	0.827	0.881	0.8	0.637	0.744	0.754	0.745												
LK-2					0.671	0.55	0.523	0.337	0.711	0.552	0.382	0.348	0.387	0.417	0.461	0.2	0.278	0.363	0.313	0.359
NCI-H358					0.787	0.753	0.602	0.594	0.387	0.309	0.32	0.357	0.638	0.547	0.556	0.359	0.211	0.213	0.209	0.218
NCI-H520	0.771	0.419	0.52	0.396	1.05	1.05	1.03	0.767	0.677	0.64	0.507	0.393					0.465	0.47	0.533	0.409
NCI-H522									0.657	0.623	0.63	0.613	0.794	0.714	0.698	0.897	0.572	0.671	0.698	0.658
NCI-H661	1.05	0.802	0.733	0.446	0.678	0.571	0.57	0.323	0.281	0.3	0.287	0.269					0.57	0.537	0.521	0.426
NCI-H1395					1.28	1.17	1.27	0.994	0.38	0.44	0.461	0.451	0.405	0.425	0.387	0.38	0.687	0.756	0.688	0.735
NCI-H1650	0.215	0.204	0.214	0.279					0.434	0.344	0.339	0.318					0.457	0.378	0.378	0.511
NCI-H1793					0.875	0.742	0.904	0.551	0.431	0.387	0.364	0.242	0.497	0.39	0.366	0.175	0.505	0.505	0.436	0.436
NCI-H1944					1.18	1.25	1.14	0.809	0.203	0.193	0.202	0.186	0.558	0.533	0.476	0.394	0.477	0.49	0.472	0.393
NCI-H2009	1.17	1.08	1.1	0.795	1.18	1.22	1.2	0.886	0.53	0.49	0.423	0.346					0.365	0.468	0.345	0.36
NCI-H2023	0.945	1.01	1.06	0.813	0.763	0.743	0.62	0.402	0.415	0.4	0.376	0.295					0.233	0.248	0.216	0.25
NCI-H2170									0.391	0.418	0.427	0.328	0.922	0.924	0.819	0.801	0.429	0.465	0.463	0.457
NCI-H2228	1.03		1.16	1.12	0.821		0.818	0.496	0.308	0.236	0.284	0.326								
SK-LU-1	1.15	1.21	1.04	0.922	1.06	1.18	1.11	0.631	0.538	0.473	0.507	0.303					0.646	0.644	0.637	0.548
SK-MES-1					1.16	1.07	1.08	0.941	0.66	0.686	0.632	0.502					0.412	0.482	0.428	0.314
SW 900									0.577		0.686	0.458	0.624	0.589	0.581	0.482	0.408	0.438	0.427	0.424
SW 1573	1.05	1.06	0.917	1.02	0.778	0.75	0.807	0.801	0.411	0.357	0.358	0.27					0.606	0.48	0.557	0.451
UMC-11	0.683	0.778	0.718	0.666	0.916	0.981	0.967	0.866	0.321	0.312	0.312	0.247					0.661	0.555	0.596	0.535
